Reference: patent US12517136B2, “Il-17F-specific capture agents, compositions, and methods of using and making” (California Institute of Technology, priority 2015, dated 2026)
Like-named read-outs stand apart in the source and are kept apart here. Bridge positions count the residues as written; N and C are the ends. Square brackets hold non-standard residues; d marks the D form. Triazole bridges read from a SMILES are 1,4-linked. Peptide text beside a SMILES is read from it. * marks the point of attachment. ξ: configuration not given here. X2 = O=C(CCCC[C@@H]1SC[C@@H]2NC(=O)N[C@@H]21)NCCCOCCOCCOCCCN*; X1 = O=C(CCCCC1SC[C@H]2NC(=O)N[C@@H]12)NCCCOCCOCCOCCCN*; Biotin = O=C1N[C@H]2[C@H](CS[C@H]2CCCCC(=O)*)N1; Lys(N3) = [N-]=[N+]=NCCCC[C@H](N)C(=O)O; Thr(3ξ) = CC(O)[C@H](N)C(=O)O; AEEEA = NCCOCCOCCOCC(=O)O; Pra = C#CC[C@H](N)C(=O)O

What was measured:
[1] = system: full-length His-tagged IL-17F and IL-17A proteins; assay: Point ELISA (IL-17F vs. IL-17A selectivity assay); format: binding, human; conditions: figure legends FIG. 2B, 4B, 4C
Description: Point ELISA (IL-17F vs. IL-17A selectivity assay). A black 96-well NeutrAvidin Coated High Binding Capacity plate (15510, Pierce) was coated with 2 μM macrocyclic peptide ligand in TBS (pH 7.6) for 2 h at room temperature. The plate was aspirated and then washed with TBS (5×) and Wash Buffer (0.05% (v/v) Tween-20 in PBS, 1×). Full-length His-tagged IL-17F (ab167911, Abcam) and IL-17A (ab166882, Abcam) proteins were prepared at 200 and 50 nM in Wash Buffer and incubated in the designated microwells for 90 min at room temperature. Microwells were aspirated and subsequently washed with Wash Buffer (10×). To detect the bound IL-17F and IL-17A proteins, Alkaline Phosphatase (AP)-conjugated Anti-6×His Tag® antibody [HIS-1] (ab49746, Abcam) was prepared at 1:10,000 dilution and added to the microwells for 1 h at room temperature. The plate was aspirated and washed with Wash Buffer (5×). AttoPhos® AP Fluorescent Substrate System (S1000, Promega) was employed to develop the microwells. Using an excitation wavelength of 430 nm, fluorescent emission at 535 nm was recorded by Beckman Coulter DTX880 photometer.
(§1) For these assays, the full-length His-tagged IL-17F and IL-17A proteins were captured using the macrocyclic peptide ligands immobilized on a NeutrAvidin-coated plate.
Point ELISA (IL-17F vs. IL-17A selectivity assay). A black 96-well NeutrAvidin Coated High Binding Capacity plate (15510, Pierce) was coated with 2 μM macrocyclic peptide ligand in TBS (pH 7.6) for 2 h at room temperature. Biotinylated monoclonal anti-IL17F (TA319597, Origene) was coated at 4 μg/mL in TBS as a control. The plate was aspirated and then washed with TBS (5×) and Wash Buffer (0.05% (v/v) Tween-20 in PBS, 1×). Full-length His-tagged IL-17F (ab167911, Abcam) and IL-17A (ab166882, Abcam) proteins were prepared at 100 nM in Wash Buffer and incubated in the designated microwells for 90 min at room temperature. Microwells were aspirated and subsequently washed with Wash Buffer (10×). To detect the bound IL-17F and IL-17A proteins, Alkaline Phosphatase (AP)-conjugated Anti-6×His Tag® antibody [HIS-1] (ab49746, Abcam) was prepared at 1:10,000 dilution and added to the microwells for 1 h at room temperature. The plate was aspirated and washed with Wash Buffer (5×). AttoPhos® AP Fluorescent Substrate System (S1000, Promega) was employed to develop the microwells. Using an excitation wavelength of 430 nm, fluorescent emission at 535 nm was recorded by Beckman Coulter DTX880 photometer.
as §1

[2] = system: His-tagged IL-17F epitopes; assay: Assay to determine orientation of macrocycle binding to IL-17F Epitope1 (point ELISA); conditions: for binding to epitope scrambled N-terminal to the click handle: epitope 2 μM, no-epitope background subtracted; for binding to the His-tagged IL-17F epitopes (overall, preferred sequence): three His-tagged epitopes, 2 μM
Description: Assay to determine orientation of macrocycle binding to IL-17F Epitope1. A black 96-well NeutrAvidin Coated High Binding Capacity plate (15510, Pierce) was coated with 2 μM macrocyclic peptide ligand in TBS (pH 7.6) for 2 h at room temperature. Biotinylated monoclonal anti-IL17F (TA319597, Origene) was coated at 4 μg/mL in TBS as a control. The plate was aspirated and then washed with TBS (5×) and Wash Buffer (0.05% (v/v) Tween-20 in PBS, 1×). Chemically synthesized His-tagged IL-17F epitopes were prepared at 2 μM in Wash Buffer and incubated in the designated microwells for 90 min at room temperature. Wash Buffer without epitope was added as a control. Microwells were aspirated and subsequently washed with Wash Buffer (10×). To detect the bound IL-17F epitopes, Alkaline Phosphatase (AP)-conjugated Anti-6×His Tag® antibody [HIS-1] (ab49746, Abcam) was prepared at 1:10,000 dilution and added to the microwells for 1 h at room temperature. The plate was aspirated and washed with Wash Buffer (5×). AttoPhos® AP Fluorescent Substrate System (S1000, Promega) was employed to develop the microwells. Using an excitation wavelength of 430 nm, fluorescent emission at 535 nm was recorded by Beckman Coulter DTX880 photometer. Data are shown after subtraction of the no-epitope background.
For this experiment, the IL-17F Epitope1 was re-synthesized with a His6 assay handle and C48S substitution instead of a click handle. Two additional His-tagged IL-17F epitopes were synthesized to contain strategic scrambling of the sequences either N-terminal or C-terminal to C48S. Point ELISAs for the three His-tagged IL-17F epitopes were conducted against the immobilized macrocyclic peptide ligands.

IL-17F [3] = biological target: T1, IL-17F (Homo sapiens, UniProt Q96PD4); assay: KD of PCC macrocycles and biligands against IL-17F (FIG. 12C); format: binding
T1 sequence (Q96PD4 31-163): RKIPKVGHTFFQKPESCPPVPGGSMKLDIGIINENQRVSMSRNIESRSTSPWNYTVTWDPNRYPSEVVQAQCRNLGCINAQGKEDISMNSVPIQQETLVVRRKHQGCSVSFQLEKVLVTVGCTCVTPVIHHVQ

IL-17F [4] = biological target: T1, IL-17F; assay: Sandwich ELISA: immobilized macrocyclic peptide ligand captures full-length His-tagged IL-17F; format: binding; set-up: Full-length His-tagged IL-17F protein (ab167911, Abcam); purchased Abcam ab167911
Description: Sandwich ELISA. A black 96-well NeutrAvidin Coated High Binding Capacity plate (15510, Pierce) was coated with 2 μM macrocyclic peptide ligand in TBS (25 mM Tris-HCl, 150 mM NaCl, pH 7.6) for 2 h at room temperature. Biotinylated monoclonal anti-IL17F (TA319597, Origene) was coated at 4 μg/mL in TBS as a control. The plate was aspirated and then washed with TBS (5×) and Wash Buffer (0.05% (v/v) Tween-20 in PBS, 1×). Full-length His-tagged IL-17F protein (ab167911, Abcam) was serially diluted in Wash Buffer (from 800 to 0 nM) and incubated in the designated microwells for 90 min at room temperature. Microwells were aspirated and subsequently washed with Wash Buffer (10×). […] (ab49746, Abcam) was prepared at 1:10,000 dilution and added to the microwells for 1 h at room temperature. The plate was aspirated and washed with Wash Buffer (5×). AttoPhos® AP Fluorescent Substrate System (S1000, Promega) was employed to develop the microwells. Using an excitation wavelength of 430 nm, fluorescent emission at 535 nm was recorded by Beckman Coulter DTX880 photometer. Titration curves were fit using a four-parameter regression curve fitting program (Origin 8.5) to determine EC50 values.
For these assays, a dilution series of full-length His-tagged IL-17F protein was captured using the macrocyclic peptide ligands immobilized on a NeutrAvidin-coated plate.
Sandwich ELISA. […]

[5] = biological target: Plasmodium falciparum Histidine Rich Protein-2 (Pf.HRP-2) (Plasmodium falciparum, UniProt P05227); format: binding

Compound: NCCCC[C@@H]1NC(=O)[C@H](CCCCN)NC(=O)[C@@H](NC(=O)COCCOCCOCCNC(=O)CCCC[C@@H]2SC[C@@H]3NC(=O)N[C@@H]32)Cc2cn(nn2)CCCC[C@@H](C(N)=O)NC(=O)[C@@H]2CCCN2C(=O)[C@H](Cc2c[nH]c3ccccc23)NC(=O)CNC1=O [Cy(KKGWP), Biotin-PEG3-Cy(KKGWP) (SEQ ID NO:23)] ({Biotin-AEEEA}-[Pra]KKGWP[Lys(N3)]-NH2; triazole 1-7)
- preferential binding, IL-17F vs IL-17A (in words) [1]: preferential binding to IL-17F

Compound: NCCCC[C@@H]1NC(=O)[C@H](CCC(N)=O)NC(=O)[C@@H](N)Cc2cn(nn2)CCCC[C@@H](C(=O)NCCCOCCOCCOCCCNC(=O)CCCC[C@@H]2SC[C@@H]3NC(=O)N[C@@H]32)NC(=O)[C@@H]2CCCN2C(=O)CNC(=O)[C@H](Cc2c[nH]cn2)NC1=O [Cy(QKHGP), Cy(QKHGP) (SEQ ID NO:15)-PEG3-biotin] (H-[Pra]QKHGP[Lys(N3)]-X2; triazole 1-7)
- preferential binding, IL-17F vs IL-17A (in words) [1]: preferential binding to IL-17F
- preferential binding, IL-17F vs IL-17A (in words) ([1]; listed as QKHGP): preferential binding to IL-17F or IL-17A

Compound: C[C@@H]1NC(=O)[C@H](CCCNC(=N)N)NC(=O)[C@H](CCCNC(=N)N)NC(=O)[C@@H](N)Cc2cn(nn2)CCCC[C@@H](C(=O)NCCCOCCOCCOCCCNC(=O)CCCCC2SC[C@H]3NC(=O)N[C@@H]23)NC(=O)[C@H](CO)NC(=O)[C@H](CCC(N)=O)NC1=O (stereo partly shown) [Cy(RRAQS), Cy(RRAQS) (SEQ ID NO:10)-PEG3-biotin] (H-[Pra]RRAQS[Lys(N3)]-X1; triazole 1-7)
- preferential binding, IL-17F vs IL-17A (in words) [1]: preferential binding to IL-17F
- binding to epitope scrambled N-terminal to the click handle [2]: Binding was destroyed
- binding to the His-tagged IL-17F epitopes (overall, preferred sequence) [2]: preferential binding to the sequence FFQKPES

Compound: CC(O)[C@@H]1NC(=O)[C@H](C)NC(=O)[C@H](CCCNC(=N)N)NC(=O)[C@H](CCCNC(=N)N)NC(=O)[C@@H](N)Cc2cn(nn2)CCCC[C@@H](C(=O)NCCCOCCOCCOCCCNC(=O)CCCCC2SC[C@H]3NC(=O)N[C@@H]23)NC(=O)[C@H](CO)NC1=O (stereo partly shown) [Cy(RRATS), Cy(RRATS) (SEQ ID NO:9)-PEG3-biotin] (H-[Pra]RRA[Thr(3ξ)]S[Lys(N3)]-X1; triazole 1-7)
- preferential binding, IL-17F vs IL-17A (in words) [1]: preferential binding to IL-17F
- preferential binding, IL-17F vs IL-17A (in words) ([1]; listed as RRATS): preferential binding to IL-17F or IL-17A
- binding to epitope scrambled N-terminal to the click handle [2]: Binding was destroyed
- binding to the His-tagged IL-17F epitopes (overall, preferred sequence) [2]: preferential binding to the sequence FFQKPES

Compound: CC1N[C@@H](CCCCN)C(=O)N[C@H](C(N)=O)CCCCn2cc(nn2)C[C@H](NC(=O)COCCOCCOCCNC(=O)CCCC[C@@H]2SC[C@@H]3NC(=O)N[C@@H]32)C(=O)N[C@@H](CCCNC(=N)N)C(=O)N[C@@H](CO)C(=O)N[C@@H](Cc2ccc(O)cc2)C(=O)N[C@H]1CC(N)=O (stereo partly shown) [Cy(RSYNK), Biotin-PEG3-Cy(RSYNK) (SEQ ID NO:28)]
- preferential binding, IL-17F vs IL-17A (in words) [1]: preferential binding to IL-17F
- preferential binding, IL-17F vs IL-17A (in words) ([1]; listed as RSYNK): preferential binding to IL-17F or IL-17A
- Kd (IL-17F [3]; read-out: KD against IL-17F): 15 nM
- EC50 (IL-17F [4]; 2 μM PEG3-biotin ligand on NeutrAvidin plate, His-tagged IL-17F 800 to 0 nM): 15 ± 5 nM
- binding affinity compared in words (ligand vs biotinylated monoclonal anti-IL17F) (IL-17F [4]; antibody coated at 4 μg/mL): exceeds the binding affinity of the similarly assayed biotinylated monoclonal anti-IL17F

Compound: C[C@@H]1NC(=O)[C@H](CCCNC(=N)N)NC(=O)[C@H](CCCNC(=N)N)NC(=O)[C@@H](NC(=O)COCCOCCOCCNC(=O)[C@@H]2CCCCn3cc(nn3)C[C@H](NC(=O)COCCOCCOCCNC(=O)CCCC[C@@H]3SC[C@@H]4NC(=O)N[C@@H]43)C(=O)N[C@@H](CCCNC(=N)N)C(=O)N[C@@H](CO)C(=O)N[C@@H](Cc3ccc(O)cc3)C(=O)N[C@@H](CC(N)=O)C(=O)N[C@@H](CCCCN)C(=O)N2)Cc2cn(nn2)CCCC[C@@H](C(N)=O)NC(=O)[C@H](CO)NC(=O)[C@H]([C@@H](C)O)NC1=O [Cy(RSYNK)-PEG3-Cy(RRATS), Biotin-PEG3-Cy(RSYNK) (SEQ ID NO:28)-PEG3-Cy(RRATS) (SEQ ID NO: 9)] ({Biotin-AEEEA}-[Pra]RSYNK[Lys(N3)][AEEEA][Pra]RRATS[Lys(N3)]-NH2; triazole 1-7, 9-15)
- Kd (IL-17F [3]): 0.25 nM
- improvement in affinity relative to the individual PCC macrocyclic ligands (IL-17F [3]): > 100 fold

Compound: C[C@@H](O)[C@@H]1NC(=O)[C@@H](N)Cc2cn(nn2)CCCC[C@@H](C(=O)NCCCOCCOCCOCCCNC(=O)CCCC[C@@H]2SC[C@@H]3NC(=O)N[C@@H]32)NC(=O)[C@@H]2CCCN2C(=O)CNC(=O)[C@H](Cc2c[nH]cn2)NC(=O)[C@H](CCCCN)NC1=O [Cy(TKHGP), Cy(TKHGP) (SEQ ID NO:16)-PEG3-biotin] (H-[Pra]TKHGP[Lys(N3)]-X2; triazole 1-7)
- preferential binding, IL-17F vs IL-17A (in words) [1]: preferential binding to IL-17F

Compound: N=C(N)NCCC[C@@H]1NC(=O)[C@H](Cc2ccc(O)cc2)NC(=O)[C@H](Cc2ccc(O)cc2)NC(=O)[C@H](CCCCN)NC(=O)[C@H](Cc2ccc(O)cc2)NC(=O)[C@@H](N)Cc2cn(nn2)CCCC[C@@H](C(N)=O)NC1=O [Cy(YKYYR), Cy(YKYYR) (SEQ ID NO:29)] (H-[Pra]YKYYR[Lys(N3)]-NH2; triazole 1-7)
- EC50 [5]: 220 nM
